Structures can show the parent of a compound that is named as a salt. Where two headings read alike, the source gives them in different places.
Legend:
[1] = Solubility of the amide linking reagents in organic solvents; format: physicochemical; details: for solubility: organic solvent or mixture, thermodynamic from solid
Protocol: All solubility determinations are carried out in a tared gas-tight 4 ml bottle with magnetic stirrer bar. The amide linking reagent (at least 5 mg) is weighed out and a certain amount of the solvent to be investigated is added. The mixture is stirred for 2-5 minutes. If undissolved solid is still present, solvent (50-100 μl) is additionally added, and the mixture is stirred again. As soon as a clear solution is present, the experiment is terminated.

[2] = solvent 9CH2Cl2:1CH3CN, read-out: solubility in 9CH2Cl2:1CH3CN
[3] = solvent CH2Cl2, read-out: solubility in CH2Cl2
[4] = solvent CH3CN, read-out: solubility in CH3CN
[5] = solvent DMF, read-out: solubility in DMF
[6] = solvent Hexane, read-out: solubility in Hexane
[7] = solvent THF, read-out: solubility in THF
[8] = solvent Toluene, read-out: solubility in Toluene

solubility in 9CH2Cl2:1CH3CN ([1]; solvent 9CH2Cl2:1CH3CN) | solubility in CH2Cl2 ([1]; solvent CH2Cl2) | solubility in CH3CN ([1]; solvent CH3CN) | solubility in DMF ([1]; solvent DMF) | solubility in Hexane ([1]; solvent Hexane) | solubility in THF ([1]; solvent THF) | solubility in Toluene ([1]; solvent Toluene) | solubility in the nonpolar solvents hexane and toluene compared with the BF4/PF6 analogue ([1]; hexane and toluene) | Compound | melting point | solubility [1, 2] | solubility [1, 3] | solubility [1, 4] | solubility [1, 5] | solubility [1, 6] | solubility [1, 7] | solubility [1, 8]
67 mg/mL | <1.2 mg/mL | >2000 mg/mL | >2000 mg/mL | <1.2 mg/mL | 670 mg/mL | <1.2 mg/mL | – | 1-(Dimethylamino(dimethylammonium-1-yliden)methyl)-1H-azabenzo-[d][1,2,3]triazole 3-oxide tris(pentafluoroethyl)trifluorophosphate [ATU-FAP] | – | – | – | – | – | – | – | –
120 mg/mL | 6.9 mg/mL | >1040 mg/mL | >1200 mg/mL | <1.2 mg/mL | 364 mg/mL | <1.2 mg/mL | – | 1-(Dimethylamino(dimethylammonium-1-ylidene)methyl)-1H-benzo[d]-1,2,3-triazole 3-oxide tris(pentafluoroethyl)trifluorophosphate [BTU-FAP] | – | – | – | – | – | – | – | –
– | – | – | – | – | – | – | solubility improvement | CCOC(=O)/C(C#N)=N/OC(N1CCOCC1)=[N+](C)C [COMU-FAP, (1-Cyano-2-ethoxy-2-oxoethylideneaminooxy)dimethylaminomorpholinocarbenium tris(pentafluoroethyl)trifluorophosphate] | – | > 2000 mg/mL | 180 mg/mL | 905 mg/mL | > 1500 mg/mL | 2.1 mg/mL | 349 mg/mL | 4.5 mg/mL
2.9 mg/mL | <1.2 mg/mL | 265 mg/mL | 220 mg/mL | <1.2 mg/mL | <1.2 mg/mL | <1.2 mg/mL | – | CN(C)C(ON1C(=O)CCC1=O)=[N+](C)C.F[B-](F)(F)F [TSTU, O—(N-succinimidyl)-N,N,N′,N′-tetramethyluronium tetrafluoroborate, reference compound] | – | – | – | – | – | – | – | –
>2000 mg/mL | >2000 mg/mL | >2000 mg/mL | >2000 mg/mL | <1.2 mg/mL | >2000 mg/mL | – | – | (7-Azabenzotriazol-1-yloxy)tris(pyrrolidino)phosphonium tris(pentafluoroethyl)trifluorophosphate [PyAOP-FAP] | – | – | – | – | – | – | – | –
>800 mg/mL | >1040 mg/mL | >700 mg/mL | >1100 mg/mL | <1.2 mg/mL | >1200 mg/mL | <1.2 mg/mL | – | (Benzotriazol-1-yloxy)tris(dimethylamino)phosphonium tris(pentafluoroethyl)trifluorophosphate [BOP-FAP] | – | – | – | – | – | – | – | –
>1500 mg/mL | >1650 mg/mL | >1550 mg/mL | >1550 mg/mL | <1.2 mg/mL | >1500 mg/mL | 5.0 mg/mL | – | (Benzotriazol-1-yloxy)tris(pyrrolidino)phosphonium tris(pentafluoroethyl)trifluorophosphate [PyBOP-FAP] | – | – | – | – | – | – | – | –
480 mg/mL | >780 mg/mL | >860 mg/mL | >1125 mg/mL | <1.2 mg/mL | >780 mg/mL | <1.2 mg/mL | – | O-(3,4-Dihydro-4-oxo-1,2,3-benzotriazin-3-yl)-N,N,N,N′-tetramethyluronium tris(pentafluoroethyl)trifluorophosphate [DBTU-FAP] | – | – | – | – | – | – | – | –
>2000 mg/mL | 1000 mg/mL | >2000 mg/mL | >2000 mg/mL | <1.2 mg/mL | 1000 mg/mL | <1.2 mg/mL | – | O-Pentafluorophenyl-N,N,N′,N′-tetramethyluronium tris(pentafluoroethyl)trifluorophosphate [PfTU-FAP] | – | – | – | – | – | – | – | –
>2000 mg/mL | 690 mg/mL | >2000 mg/mL | >2000 mg/mL | <1.2 mg/mL | 1400 mg/mL | <1.2 mg/mL | – | S-(1-Oxido-2-pyridyl)-N,N,N′,N′-tetramethylthiouronium tris(pentafluoroethyl)trifluorophosphate [OTT-FAP] | – | – | – | – | – | – | – | –

Continued, compound first:

Compound | solubility in 9CH2Cl2:1CH3CN ([1]; solvent 9CH2Cl2:1CH3CN) | solubility in CH2Cl2 ([1]; solvent CH2Cl2) | solubility in CH3CN ([1]; solvent CH3CN) | solubility in DMF ([1]; solvent DMF) | solubility in Hexane ([1]; solvent Hexane) | solubility in THF ([1]; solvent THF) | solubility in Toluene ([1]; solvent Toluene) | solubility in the nonpolar solvents hexane and toluene compared with the BF4/PF6 analogue ([1]; hexane and toluene) | melting point | solubility [1, 2] | solubility [1, 3] | solubility [1, 4] | solubility [1, 5] | solubility [1, 6] | solubility [1, 7] | solubility [1, 8]
[O-][n+]1nn(C(N2CCCC2)=[N+]2CCCC2)c2ccccc21 (as salt: phosphate) [BPyU-FAP, 1-(Pyrrolidino(pyrrolidinium-1-ylidene)methyl)-1H-benzo[d]-1,2,3-triazole 3-oxide tris(pentafluoroethyl)trifluorophosphate] | – | – | – | – | – | – | – | – | 173 °C (dec.) | – | – | – | – | – | – | –
CN(C)[P+](On1nnc2ccccc21)(N(C)C)N(C)C.F[P-](F)(F)(F)(F)F [BOP, (benzotriazol-1-yloxy)tris(dimethylamino)phosphonium hexafluorophosphate, reference compound] | – | – | – | – | – | – | – | – | – | > 335 mg/mL | > 380 mg/mL | 510 mg/mL | 660 mg/mL | < 1.2 mg/mL | < 4.2 mg/mL | < 1.2 mg/mL
[O-][n+]1nn(C(N2CCCC2)=[N+]2CCCC2)c2ccccc21 [BPyU-FAP, 1-(Pyrrolidino(pyrrolidinium-1-ylidene)methyl)-1H-benzo[d]-1,2,3-triazole 3-oxide tris(pentafluoroethyl)trifluorophosphate] | – | – | – | – | – | – | – | – | – | 190 mg/mL | 57 mg/mL | > 1020 mg/mL | > 1100 mg/mL | < 1.2 mg/mL | 510 mg/mL | < 1.2 mg/mL
CCOC(=O)C(C#N)=NO[C+](N(C)C)N1CCOCC1.F[P-](F)(F)(F)(F)F [COMU, (1-cyano-2-ethoxy-2-oxoethylideneaminooxy)dimethylaminomorpholinocarbenium hexafluorophosphate, reference compound] | – | – | – | – | – | – | – | – | – | 294 mg/mL | 82 mg/mL | 565 mg/mL | 530 mg/mL | < 1.2 mg/mL | 4.1 mg/mL | 3.2 mg/mL
F[P-](F)(F)(F)(F)F.[O-][n+]1nn(C(N2CCCC2)=[N+]2CCCC2)c2ccccc21 [HBPyU, 1-(pyrrolidino(pyrrolidinium-1-ylidene)methyl)-1H-benzo-[d][1,2,3]triazole 3-oxide hexafluorophosphate, reference compound] | – | – | – | – | – | – | – | – | – | 118 mg/mL | 68.3 mg/mL | 510 mg/mL | 540 mg/mL | < 1.2 mg/mL | < 3.3 mg/mL | < 1.2 mg/mL
CN(C)C(n1n[n+]([O-])c2ccccc21)=[N+](C)C.F[P-](F)(F)(F)(F)F [HBTU, 1-(dimethylamino(dimethylamonium-1-ylidene)methyl)-1H-benzo[d][1,2,3]triazole 3-oxide hexafluorophosphate, reference compound] | <2.8 mg/mL | <1.1 mg/mL | 124 mg/mL | 200 mg/mL | <1.2 mg/mL | <3.6 mg/mL | <1.2 mg/mL | – | – | – | – | – | – | – | – | –
CN(C)C(On1nnc2ccccc2c1=O)=[N+](C)C.F[B-](F)(F)F [HDBTU, O-(3,4-dihydro-4-oxo-1,2,3-benzotriazin-3-yl)-N,N,N′,N′-tetramethyluronium tetrafluoroborate, reference compound] | – | – | – | – | – | – | – | – | – | 17 mg/mL | 3.75 mg/mL | 240 mg/mL | 250 mg/mL | < 1.2 mg/mL | < 3.3 mg/mL | < 1.2 mg/mL
CN(C)C(Sc1cccc[n+]1[O-])=[N+](C)C.F[P-](F)(F)(F)(F)F [HOTT, S-(1-oxido-2-pyridyl)-N,N,N′,N′-tetramethylthiouronium hexafluorophosphate, reference compound] | – | – | – | – | – | – | – | – | – | 180 mg/mL | 59 mg/mL | 810 mg/mL | 690 mg/mL | < 1.2 mg/mL | < 1.2 mg/mL | < 1.2 mg/mL
CN(C)C(Oc1c(F)c(F)c(F)c(F)c1F)=[N+](C)C.F[P-](F)(F)(F)(F)F [PfTU, O-pentafluorophenyl-N,N,N′,N′-tetramethyluronium hexafluorophosphate, reference compound] | 2.5 mg/mL | <1.2 mg/mL | 1000 mg/mL | 1000 mg/mL | <1.2 mg/mL | <1.2 mg/mL | <1.2 mg/mL | – | – | – | – | – | – | – | – | –
F[P-](F)(F)(F)(F)F.c1cnc2c(c1)nnn2O[P+](N1CCCC1)(N1CCCC1)N1CCCC1 [PyAOP, (7-azabenzotriazol-1-yloxy)tris(pyrrolidino)phosphonium hexafluorophosphate, reference compound] | – | – | – | – | – | – | – | – | – | 670 mg/mL | 1000 mg/mL | 1000 mg/mL | 670 mg/mL | < 1.2 mg/mL | 6 mg/mL | < 1.2 mg/mL
